Consider 4 compounds from PMC9043592, “New triterpenes from Cimicifuga yunnanensis down-regulating the mRNA expression of CD147, MMP-2, and MMP-9” (RSC Advances, 2021).

Assay [1] concerns CD147 and MMPs mRNA expression. The arrangement: method as in PMID 35541353, doi:10.1016/j.phytol.2021.01.009. The note with it: previously identified CTs from C. foetida; cited from earlier work.
Assay [2] has as its system CD147 (extracellular matrix metalloproteinase inducer, EMMPRIN) mRNA expression. As to the kind of experiment: q-PCR, mRNA expression of CD147 in PMA-induced THP-1 cells. The format is cell-based, Human. The note with it: 24 h; for CD147 mRNA inhibitory effect compared with YG (positive control) / suppression of the mRNA expression of CD147 (in words): 10 μM; for IC50: Homo sapiens, q-PCR 2^-ΔΔCt, 1-50 μM, read-out: IC50, suppression of mRNA expression of CD147. How it is done: (§1) Human monocytic THP-1 cells were cultured at 37 °C by DMEM/F12 medium supplemented with 10% fetal bovine serum and 1% penicillin/streptomycin in a humidified atmosphere of 5% CO2. Cells (5 × 10^5 to 10^6 per mL) were subjected to differentiation by 100 nM PMA for 24 h with DMEM/F12 serum medium. After incubation, the adherent cells were washed with DMEM/F12. Nonattached cells were removed by aspiration.
RevertAid™ First Strand cDNA Synthesis Kit was applied to extract total RNA of differentiated THP-1 cells treated with compounds 3–5, 9 and 11 (10 μM), along with 7 and 8 (1, 3, 10, 25, and 50 μM) for 24 h (5 × 10^5 cells per mL) following the manufacturer's instructions. cDNA was synthesized from the isolated total RNA based on the instruction of the PrimeScript RT reagent Kit. Briefly, PrimeScript RT Enzyme Mix 1 (0.5 μL), 5 × PrimeScriptTM Buffer (2 μL), oligo dt Primer (0.5 μL) and Random 6 mers (0.5 μL) were gently mixed with 1 μg RNA from each sample to a reaction volume of 10 μL with RNase free water, then incubated for 15 minutes at 37 °C to activate the reverse transcriptase enzyme. Finally, the reaction was stopped by 85 °C for 5 seconds.
After reverse transcription, cDNA was used to carry out real-time quantitative RT-PCR on ProFlex™ PCR system by SYBR Premix Ex Taq (Takara). The final volume of TR-PCR reaction is 25 μL, containing 12.5 μL SYBR green master mix, 1 μL cDNA, 0.5 μL each forward and reverse primer, and 10.5 μL nuclease-free water. For information of primers see Table S1. ^† Thermal cycling conditions for all genes were as follows: template pre-denaturation (10 min at 95 °C), denaturation (15 seconds at 95 °C), annealing and extension (30 seconds at 60 °C) for 40 cycles. Internal reference is GAPDH mRNA, and fold changes of mRNA expression for each target relative to GAPDH were calculated by the 2^−ΔΔCt method. Expression of mRNA is determined as the change in mRNA copy numbers relative to negative control cells (undifferentiated THP-1 cells). All the experiments were carried out in triplicate.

A further assay relates to MMP-2 mRNA expression. Briefly: q-PCR, mRNA expression of MMP-2 in PMA-induced THP-1 cells. The format is cell-based, Human. The note with it: 24 h. How it is done: as §1
(§2) RevertAid™ First Strand cDNA Synthesis Kit was applied to extract total RNA of differentiated THP-1 cells treated with compounds 3–5, 9 and 11 (10 μM), along with 7 and 8 (1, 3, 10, 25, and 50 μM) for 24 h (5 × 10^5 cells per mL) following the manufacturer's instructions. cDNA was synthesized from the isolated total RNA based on the instruction of the PrimeScript RT reagent Kit. […]
(§3) After reverse transcription, cDNA was used to carry out real-time quantitative RT-PCR on ProFlex™ PCR system by SYBR Premix Ex Taq (Takara). […] Internal reference is GAPDH mRNA, and fold changes of mRNA expression for each target relative to GAPDH were calculated by the 2^−ΔΔCt method. Expression of mRNA is determined as the change in mRNA copy numbers relative to negative control cells (undifferentiated THP-1 cells). […]

Another assay has as its system MMP-9 mRNA expression. Briefly: q-PCR, mRNA expression of MMP-9 in PMA-induced THP-1 cells. The note with it: 24 h. The format is cell-based, Human. How it is done:
as §1, §2, §3

Assay [3] deals with migration of PMA-induced THP-1 cells. As to the kind of experiment: Wound-healing (scratch wound) migration assay. The format is cell-based. The note with it: Homo sapiens, 24 h incubation, read-out: IC50, decrease of number of migrated cells. How it is done:
as §1
The differentiated THP-1 cells were seeded and grown into full confluence in 6 well plates. 2% FBS DMEM/F12 media was used to inactivated cell proliferation for 12 h, then wounded with pipette tips. Fresh DMEM/F12 medium with or without 1, 3, 10, 25, and 50 μM of 7 was added to the scratched monolayers. Images were took after 24 hours using a Nickon inverted microscope (magnification, 10×). The migration cell number of PMA-induced THP-1 cell group was defined as control. All the experiments were performed in triplicate.

On to 12β-hydroxycimiacerol [HC], for which the “inhibitions on CD147 and MMPs mRNA expression (in words)” value in assay [1] was “notable inhibitions”.
Usually IC50 stands for the midpoint of a concentration-inhibition curve. Take `CC1CC(C(O)C(C)(C)O)OC2(O)C(=O)C3(C)C4=CCC5C(C)(C)C(=O)CCC56CC46CC(O)C3(C)C12` [Compound 7, (23R,24S)-12β-Hydroxy-7(8)-en-3,15-dione-hydroxyshengmanol]: the “CD147 mRNA inhibitory effect compared with YG (positive control)” value in assay [2] is recorded as “more potent than YG”. The “suppression of the mRNA expression of CD147 (in words)” value in assay [2] is reported as “noticeably suppressed”. Moreover, the IC50 in assay [2] turned out to be 3.38 ± 0.27 µM; in the assay with MMP-2 mRNA expression (Homo sapiens, q-PCR, 1-50 μM, read-out: IC50, down-regulation of mRNA expression of MMP-2), 6.32 ± 0.31 µM; in the assay on MMP-9 mRNA expression (Homo sapiens, q-PCR, 1-50 μM, read-out: IC50, down-regulation of mRNA expression of MMP-9), 11.6 ± 0.23 µM; in assay [3], 5.87 ± 0.27 µM.
Regarding `CC1C(O)C2(OC3CC4(C)C5CCC6C(C)(C)C(O)CCC67CC57CCC4(C)C31)OC2C(C)(C)O` (stereo not shown) [Compound 8, Actaeaepol], in assay [2], the “CD147 mRNA inhibitory effect compared with YG (positive control)” value is given as “same level of activity as YG”, the “suppression of the mRNA expression of CD147 (in words)” value is on record as “noticeably suppressed” and the IC50 is 8.25 ± 0.33 µM. Also, in the assay with MMP-2 mRNA expression (10 μM, P < 0.01), the “decrease of MMP-2 mRNA expression” value was 35%. In addition, the “decrease of MMP-9 mRNA expression” value with MMP-9 mRNA expression (10 μM, P < 0.01) was 25%.
For the compound yunnanterpene G [YG], the “inhibitions on CD147 and MMPs mRNA expression (in words)” value in assay [1] is “notable inhibitions”.
